We go through 1 molecule from publication PMC11357638 (Molecules, 2024).

Where a chain is given by its changes, count along the chain named.

For one data set, the target named is T1, hTRPV3 single channel (Homo sapiens, UniProt Q8NET8).
T1 construct: expressed in transfected cells; host or cells: HEK293T
T1 sequence (Q8NET8 1-790): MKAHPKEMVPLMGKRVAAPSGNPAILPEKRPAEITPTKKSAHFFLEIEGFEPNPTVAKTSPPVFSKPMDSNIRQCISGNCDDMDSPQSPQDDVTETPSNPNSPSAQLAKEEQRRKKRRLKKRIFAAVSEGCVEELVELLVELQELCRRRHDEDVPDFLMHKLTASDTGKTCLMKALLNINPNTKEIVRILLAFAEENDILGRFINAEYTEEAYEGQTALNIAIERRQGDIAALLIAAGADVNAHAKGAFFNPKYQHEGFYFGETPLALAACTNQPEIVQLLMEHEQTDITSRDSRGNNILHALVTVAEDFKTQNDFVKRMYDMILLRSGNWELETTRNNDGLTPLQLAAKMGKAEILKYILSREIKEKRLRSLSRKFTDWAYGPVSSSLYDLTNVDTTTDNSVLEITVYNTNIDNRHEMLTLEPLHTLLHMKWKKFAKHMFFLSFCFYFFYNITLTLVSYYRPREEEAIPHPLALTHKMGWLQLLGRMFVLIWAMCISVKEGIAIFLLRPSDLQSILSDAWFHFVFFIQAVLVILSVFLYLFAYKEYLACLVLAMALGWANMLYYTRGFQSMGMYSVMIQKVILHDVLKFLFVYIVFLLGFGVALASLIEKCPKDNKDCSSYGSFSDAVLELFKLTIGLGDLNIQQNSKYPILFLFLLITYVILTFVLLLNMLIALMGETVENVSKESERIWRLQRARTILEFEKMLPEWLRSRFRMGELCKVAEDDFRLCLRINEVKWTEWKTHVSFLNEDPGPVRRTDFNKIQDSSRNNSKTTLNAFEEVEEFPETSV
The data set can be described thus: Inside-out single-channel recording of hTRPV3. It counts as cell-based. Conditions: CA at 500 μM co-applied with 50 μM 2-APB, −60 mV.

Data set [1] concerns the target T2, human TRPV1 (hTRPV1) channels (Homo sapiens, UniProt Q8NER1).
T2 construct: expressed in transfected cells; host or cells: HEK293T
The data set can be described thus: Whole-cell patch-clamp selectivity, hTRPV1 in HEK293T cells. In kind it is cell-based. The conditions noted are these: HEK-293T; CA at 1000 μM, current caused by 1 μM capsaicin, mean ± SD, n = 5. A general note: Patch clamp records ionic current or voltage across a cell membrane.

Data set [2] concerns the target T3, human TRPV4 (hTRPV4) channels (Homo sapiens, UniProt Q9HBA0).
T3 construct: expressed in transfected cells; host or cells: HEK293T
As to the kind of experiment: Whole-cell patch-clamp selectivity, hTRPV4 in HEK293T cells. In kind it is cell-based. The conditions noted are these: HEK-293T; 1000 μM CA, current caused by 0.1 μM GSK1016790A, mean ± SD, n = 5.

The target of data set [3] is T4, human TRPM8 (hTRPM8) channels (Homo sapiens, UniProt Q7Z2W7).
T4 construct: expressed in transfected cells; host or cells: HEK293T
T4 sequence (Q7Z2W7 whole entry): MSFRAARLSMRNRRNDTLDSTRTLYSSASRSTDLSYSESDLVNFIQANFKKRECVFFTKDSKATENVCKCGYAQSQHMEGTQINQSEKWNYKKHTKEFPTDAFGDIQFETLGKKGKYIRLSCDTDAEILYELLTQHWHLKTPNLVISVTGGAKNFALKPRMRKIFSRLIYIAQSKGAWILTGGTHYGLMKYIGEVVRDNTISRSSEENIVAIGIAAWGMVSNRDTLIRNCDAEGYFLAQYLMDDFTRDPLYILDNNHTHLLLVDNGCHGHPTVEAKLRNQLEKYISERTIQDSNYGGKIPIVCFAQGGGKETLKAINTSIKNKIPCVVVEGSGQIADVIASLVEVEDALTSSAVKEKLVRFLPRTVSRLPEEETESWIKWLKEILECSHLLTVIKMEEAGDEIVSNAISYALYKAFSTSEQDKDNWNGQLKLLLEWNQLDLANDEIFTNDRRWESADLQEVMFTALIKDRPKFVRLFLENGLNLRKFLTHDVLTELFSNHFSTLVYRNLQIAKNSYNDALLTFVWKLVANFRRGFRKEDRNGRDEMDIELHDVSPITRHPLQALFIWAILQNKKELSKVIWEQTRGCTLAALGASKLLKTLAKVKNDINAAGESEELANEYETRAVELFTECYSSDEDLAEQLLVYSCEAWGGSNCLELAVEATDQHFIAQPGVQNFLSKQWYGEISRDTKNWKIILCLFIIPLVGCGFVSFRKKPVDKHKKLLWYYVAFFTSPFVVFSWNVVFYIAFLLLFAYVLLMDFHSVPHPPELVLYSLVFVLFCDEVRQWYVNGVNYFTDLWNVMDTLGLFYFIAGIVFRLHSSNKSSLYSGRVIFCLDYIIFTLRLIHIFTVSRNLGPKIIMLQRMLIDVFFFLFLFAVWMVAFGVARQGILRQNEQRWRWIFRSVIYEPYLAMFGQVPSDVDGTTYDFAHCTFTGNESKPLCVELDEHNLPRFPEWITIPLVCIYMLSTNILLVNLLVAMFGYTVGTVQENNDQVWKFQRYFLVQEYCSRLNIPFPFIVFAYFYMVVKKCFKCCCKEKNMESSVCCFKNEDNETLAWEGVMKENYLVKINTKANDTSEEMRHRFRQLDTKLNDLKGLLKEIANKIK
The data set can be described thus: Whole-cell patch-clamp selectivity, hTRPM8 in HEK293T cells. In kind it is cell-based. Conditions: HEK-293T; 1000 μM CA, current caused by 500 μM menthol, mean ± SD, n = 5.

The next data set has as its target T5, hTRPV3 L670A mutant (Homo sapiens, UniProt Q8NET8, L670A).
T5 construct: expressed in transfected cells; host or cells: HEK293T
T5 sequence (Q8NET8 1-790 L670A): T1 sequence (Q8NET8 1-790) with L670A
The data set can be described thus: Whole-cell patch-clamp of hTRPV3 L670A mutant in HEK293T cells. In kind it is cell-based. The conditions noted are these: 50 μM 2-APB.

Data set [4] has as its system TRPV3-mediated skin inflammation induced by carvacrol. As to the kind of experiment: Mouse model of dorsal skin dermatitis induced by skin sensitizer carvacrol. It counts as in vivo, C57BL/6J mice. The conditions noted are these: mice, subcutaneous CA 0.1 and 1 mM (100 μL) once a day for 5 days, topical 2% carvacrol, versus carvacrol model group.
A further data set relates to HEK293T cells. As to the kind of experiment: Cell viability of HEK293T cells (CCK-8 assay). In kind it is cell-based, human. Conditions: CA 1 mM, CCK-8, 6 hours treatment. For orientation: Tetrazolium assays rely on reduction of a dye to a coloured formazan, in cell work by metabolically active cells.
The target of the next data set is T6, hTRPV3 F666A mutant (Homo sapiens, UniProt Q8NET8, F666A).
T6 sequence (Q8NET8 1-790 F666A): T1 sequence (Q8NET8 1-790) with F666A
As to the kind of experiment: cell-based.

The term inhibition denotes the change of the read-out against control, counted positive when it falls. High values mean strong suppression, low ones little suppression. What is called IC50 is the point on the concentration scale where inhibition reaches its midpoint.

T2 sequence (Q8NER1 whole entry): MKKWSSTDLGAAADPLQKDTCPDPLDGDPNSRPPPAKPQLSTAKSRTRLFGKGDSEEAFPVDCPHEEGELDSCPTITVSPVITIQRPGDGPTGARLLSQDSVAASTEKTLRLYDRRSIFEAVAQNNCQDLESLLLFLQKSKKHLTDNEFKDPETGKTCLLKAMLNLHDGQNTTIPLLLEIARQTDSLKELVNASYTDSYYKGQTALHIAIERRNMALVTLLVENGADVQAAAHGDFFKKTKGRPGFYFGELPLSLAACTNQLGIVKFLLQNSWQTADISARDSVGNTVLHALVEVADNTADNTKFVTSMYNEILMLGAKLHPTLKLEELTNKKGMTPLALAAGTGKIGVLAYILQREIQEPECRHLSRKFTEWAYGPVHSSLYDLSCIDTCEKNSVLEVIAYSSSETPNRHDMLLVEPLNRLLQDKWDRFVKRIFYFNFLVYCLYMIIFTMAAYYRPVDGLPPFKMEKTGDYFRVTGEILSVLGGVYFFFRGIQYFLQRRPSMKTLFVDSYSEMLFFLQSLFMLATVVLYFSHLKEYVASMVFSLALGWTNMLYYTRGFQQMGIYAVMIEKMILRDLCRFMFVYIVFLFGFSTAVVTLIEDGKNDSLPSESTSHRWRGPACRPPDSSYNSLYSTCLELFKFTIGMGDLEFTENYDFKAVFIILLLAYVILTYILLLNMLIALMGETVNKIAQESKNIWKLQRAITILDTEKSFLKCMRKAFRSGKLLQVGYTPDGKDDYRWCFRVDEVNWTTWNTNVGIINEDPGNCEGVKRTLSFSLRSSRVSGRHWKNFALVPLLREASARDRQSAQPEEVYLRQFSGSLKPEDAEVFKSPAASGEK
T3 sequence (Q9HBA0 whole entry): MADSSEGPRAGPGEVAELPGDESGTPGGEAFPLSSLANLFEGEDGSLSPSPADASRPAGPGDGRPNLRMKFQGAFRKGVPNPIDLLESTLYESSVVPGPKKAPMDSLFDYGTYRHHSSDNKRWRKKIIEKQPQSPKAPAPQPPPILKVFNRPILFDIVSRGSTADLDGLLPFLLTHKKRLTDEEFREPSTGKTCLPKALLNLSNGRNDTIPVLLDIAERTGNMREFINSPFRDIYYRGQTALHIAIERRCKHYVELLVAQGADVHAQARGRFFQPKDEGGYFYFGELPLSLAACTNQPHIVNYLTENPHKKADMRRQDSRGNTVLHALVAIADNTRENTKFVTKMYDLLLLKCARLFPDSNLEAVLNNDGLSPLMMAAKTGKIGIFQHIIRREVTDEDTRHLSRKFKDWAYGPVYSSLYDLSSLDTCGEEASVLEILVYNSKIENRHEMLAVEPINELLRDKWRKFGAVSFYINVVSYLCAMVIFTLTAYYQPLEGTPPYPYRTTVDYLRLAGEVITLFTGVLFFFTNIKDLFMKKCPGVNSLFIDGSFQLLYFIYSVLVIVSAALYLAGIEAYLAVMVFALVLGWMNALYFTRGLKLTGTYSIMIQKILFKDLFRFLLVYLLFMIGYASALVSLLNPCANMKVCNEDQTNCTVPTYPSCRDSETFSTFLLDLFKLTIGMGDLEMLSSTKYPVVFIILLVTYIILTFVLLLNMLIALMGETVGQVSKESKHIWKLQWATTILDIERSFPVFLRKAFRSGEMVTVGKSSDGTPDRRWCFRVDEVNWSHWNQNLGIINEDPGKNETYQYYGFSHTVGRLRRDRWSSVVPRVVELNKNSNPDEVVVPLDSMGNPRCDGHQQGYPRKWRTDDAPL

For the molecule `O=C(O)/C=C/c1ccc(O)c(O)c1` [CA, caffeic acid], the “open frequency (Freq)” value on hTRPV3 single channel turned out to be 15.96 ± 2.25 Hz. The figures for the inhibition at 1000 µM in data set [1], in data set [2] and in data set [3] were around 20%, around 4.6% and around 20.1%, respectively. The “channel current inhibition by 500 μM CA compared to WT” value at hTRPV3 L670A mutant was “no significant difference”. Further, the epidermal thickness result in data set [4] (H&E sections) is “reduced epidermal thickness”. Further, in data set [4], the dermatitis scores entry is “significantly reduced the dermatitis scores”. Moreover, in the data set on HEK293T cells, the “cytotoxicity (cell viability)” value was “did not cause any noticeable cytotoxicity”. Inhibition against hTRPV3 F666A mutant was half-maximal at 105 ± 4.8 µM (IC50).
